We go through 84 molecules from the Kinase Knowledgebase extract (Sharma et al. 2016).

The test concerns the target PIK3CG (human) (UniProt P48736). Put plainly: Inhibition of PIK3CG Kinase Activity.

Structures are written as SMILES.

PIK3CG (human), sequence (P48736 whole entry, looked up): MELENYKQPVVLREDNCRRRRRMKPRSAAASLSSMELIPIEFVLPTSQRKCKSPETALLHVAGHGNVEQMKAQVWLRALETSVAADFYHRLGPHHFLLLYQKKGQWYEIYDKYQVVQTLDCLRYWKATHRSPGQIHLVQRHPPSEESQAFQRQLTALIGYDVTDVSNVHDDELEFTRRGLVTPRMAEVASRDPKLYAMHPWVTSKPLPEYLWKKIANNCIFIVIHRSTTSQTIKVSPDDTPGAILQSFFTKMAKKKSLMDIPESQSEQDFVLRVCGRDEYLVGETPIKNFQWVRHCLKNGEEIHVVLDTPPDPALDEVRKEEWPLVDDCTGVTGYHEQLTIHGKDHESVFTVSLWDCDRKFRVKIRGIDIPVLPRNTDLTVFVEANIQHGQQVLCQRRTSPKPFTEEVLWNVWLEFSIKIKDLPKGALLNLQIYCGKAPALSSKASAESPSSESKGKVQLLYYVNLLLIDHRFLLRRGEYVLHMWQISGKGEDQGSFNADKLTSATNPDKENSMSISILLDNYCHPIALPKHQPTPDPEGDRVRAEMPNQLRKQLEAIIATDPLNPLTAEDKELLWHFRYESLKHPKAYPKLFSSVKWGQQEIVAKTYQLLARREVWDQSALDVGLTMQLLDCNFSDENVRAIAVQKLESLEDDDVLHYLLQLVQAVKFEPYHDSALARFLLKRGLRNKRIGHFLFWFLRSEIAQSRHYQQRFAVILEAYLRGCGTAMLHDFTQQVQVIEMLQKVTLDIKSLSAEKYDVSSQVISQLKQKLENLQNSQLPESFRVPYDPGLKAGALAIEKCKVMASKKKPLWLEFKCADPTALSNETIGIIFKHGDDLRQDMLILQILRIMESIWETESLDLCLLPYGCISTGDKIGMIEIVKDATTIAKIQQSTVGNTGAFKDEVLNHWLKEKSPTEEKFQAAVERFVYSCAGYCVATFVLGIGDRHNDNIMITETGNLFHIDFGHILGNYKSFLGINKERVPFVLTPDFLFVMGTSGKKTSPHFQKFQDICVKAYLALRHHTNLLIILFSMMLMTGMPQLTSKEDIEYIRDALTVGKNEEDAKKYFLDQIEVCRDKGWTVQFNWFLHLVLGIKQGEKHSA

In turn, `Cc1nc(Nc2cc[nH]n2)sc1-c1ccc(S(C)(=O)=O)c(N2CCN(C)CC2)c1` returned an IC50 of less than 0.6 µM.

In turn, `Cc1nc(Nc2cc[nH]n2)sc1-c1cccc(S(N)(=O)=O)c1` registered a concentration for half-maximal inhibition (IC50) of less than 0.6 µM.

As to `Cc1nc(Nc2cnccn2)sc1-c1cccc(S(N)(=O)=O)c1`, the half-inhibitory concentration (IC50) is less than 0.6 µM.

Take `Cc1nc(Nc2cccnc2)sc1-c1ccc(S(C)(=O)=O)c(Cl)c1`: the IC50 was less than 0.6 µM.

With `Cc1nc(Nc2cncc(Cl)n2)sc1-c1ccc(S(N)(=O)=O)cc1`, the IC50 is less than 0.6 µM.

In turn, `COc1ccc(-c2sc(Nc3cnccn3)nc2C)cc1S(N)(=O)=O` came in with an IC50 of less than 0.6 µM.

The molecule `Cc1nc(Nc2cnccn2)sc1-c1ccc(S(C)(=O)=O)c(-n2ccnc2C(C)C)c1` displayed an IC50 of less than 0.6 µM.

On to `Cc1nc(Nc2cncc(N3CCOCC3)n2)sc1-c1ccc(S(N)(=O)=O)cc1`, for which the IC50 was less than 0.6 µM.

Take `Cc1nc(Nc2nnc(CCN(C)C)s2)sc1-c1ccc(S(N)(=O)=O)cc1`: the IC50 is less than 0.6 µM.

Consider `Cc1nc(Nc2cnccn2)sc1-c1ccc(S(N)(=O)=O)c(Cl)c1`, for which the IC50 is less than 0.6 µM.

Molecule `Cc1nnc(Nc2nc(C)c(-c3ccc(S(C)(=O)=O)c(-n4ccnc4)c3)s2)s1` came in with an IC50 of less than 0.6 µM.

Take `Cc1csc(Nc2nc(C)c(-c3ccc(S(N)(=O)=O)cc3)s2)n1`: the IC50 was less than 0.6 µM.

As to `COc1cncc(Nc2nc(C)c(-c3ccc(S(=O)(=O)NC4CC4)cc3)s2)n1`, the IC50 is less than 0.6 µM.

`CCc1nnc(Nc2nc(C)c(-c3ccc(S(=O)(=O)NCCO)cc3)s2)s1` came in with an IC50 of less than 0.6 µM.

In turn, `Cc1nc(Nc2nncs2)sc1-c1ccc(S(N)(=O)=O)cc1` yielded an IC50 of less than 0.6 µM.

`Cc1nc(Nc2cc[nH]n2)sc1-c1ccc(Cl)c(S(=O)(=O)NCCO)c1`: the IC50 is less than 0.6 µM.

`Cc1nc(Nc2nnc(N3CCOCC3)s2)sc1-c1ccc(S(C)(=O)=O)c(C(F)(F)F)c1`: the IC50 was less than 0.6 µM.

In turn, `Cc1nc(Nc2nnc(CCC(=O)O)s2)sc1-c1ccc(S(C)(=O)=O)c(C(F)(F)F)c1` had an IC50 of less than 0.6 µM.

As to `Cc1nc(Nc2cnccn2)sc1-c1ccc(S(=O)(=O)NC2CC2)cc1`, the IC50 was less than 0.6 µM.

With `COc1cncc(Nc2nc(C)c(-c3ccc(S(N)(=O)=O)cc3)s2)n1`, the IC50 is less than 0.6 µM.

Turning to `Cc1nc(Nc2cnccn2)sc1-c1ccc(S(C)(=O)=O)c(C(F)(F)F)c1`, the IC50 is less than 0.6 µM.

In the case of `CCOC(=O)CCc1nnc(Nc2nc(C)c(-c3ccc(S(N)(=O)=O)cc3)s2)s1`, the IC50 is less than 0.6 µM.

Take `Cc1nc(Nc2ccn(C)n2)sc1-c1ccc(S(C)(=O)=O)c(F)c1`: the IC50 was less than 0.6 µM.

For the molecule `Cc1nc(Nc2nnn[nH]2)sc1-c1ccc(S(N)(=O)=O)cc1`, the half-maximal inhibitory concentration (IC50) is less than 0.6 µM.

`Cc1cnc(Nc2nc(C)c(-c3ccc(S(N)(=O)=O)cc3)s2)s1` showed an IC50 of less than 0.6 µM.

As for `Cc1nc(Nc2cnccn2)sc1-c1ccc(S(C)(=O)=O)c(-n2ccnc2)c1`, the IC50 was less than 0.6 µM.

In turn, `Cc1nc(Nc2cnccn2)sc1-c1ccc(S(C)(=O)=O)cc1` registered an IC50 of less than 0.6 µM.

Consider `Cc1nc(Nc2nnc(C3CCC(C(=O)O)CC3)s2)sc1-c1ccc(S(C)(=O)=O)c(C(F)(F)F)c1` (centres undefined), for which the concentration for half-maximal inhibition (IC50) was less than 0.6 µM.

`Cc1nc(Nc2nnc(CCN3CCOCC3)s2)sc1-c1ccc(S(C)(=O)=O)c(C(F)(F)F)c1` gave an IC50 of less than 0.6 µM.

Molecule `Cc1nc(Nc2cncc(Cl)n2)sc1-c1ccc(S(C)(=O)=O)cc1` registered an IC50 of less than 0.6 µM.

`Cc1nc(Nc2nnc(CC(=O)O)s2)sc1-c1ccc(S(N)(=O)=O)cc1`: the IC50 was less than 0.6 µM.

With `CCCc1nccn1-c1cc(-c2sc(Nc3nnc(CC)s3)nc2C)ccc1S(C)(=O)=O`, the IC50 was less than 0.6 µM.

Turning to `Cc1nc(Nc2cncc(Cl)n2)sc1-c1ccc(S(C)(=O)=O)c(C(F)(F)F)c1`, the IC50 was less than 0.6 µM.

As for `CCN(CC)CCCNS(=O)(=O)c1cc(-c2sc(Nc3cc[nH]n3)nc2C)ccc1Cl`, the IC50 is less than 0.6 µM.

With `Cc1nc(Nc2cncc(N3CCN(C)CC3)n2)sc1-c1ccc(S(N)(=O)=O)cc1`, the IC50 was less than 0.6 µM.

`CCc1nnc(Nc2nc(C)c(-c3cccc(S(N)(=O)=O)c3)s2)s1` came in with an IC50 of less than 0.6 µM.

The molecule `Cc1cnc(Nc2nc(C)c(-c3ccc(Cl)c(S(=O)(=O)NCCO)c3)s2)s1` showed an IC50 of less than 0.6 µM.

Molecule `Cc1nc(Nc2ccn(C)n2)sc1-c1ccc(Cl)c(S(=O)(=O)NCCO)c1` came in with an IC50 of less than 0.6 µM.

The molecule `Cc1nc(Nc2n[nH]cc2Br)sc1-c1ccc(S(C)(=O)=O)c(F)c1` yielded an IC50 of less than 0.6 µM.

In the case of `Cc1nc(Nc2cc[nH]n2)sc1-c1ccc(S(N)(=O)=O)cc1`, the IC50 is less than 0.6 µM.

Consider `COc1ccc(Nc2nc(C)c(-c3ccc(S(N)(=O)=O)cc3)s2)cn1`, for which the IC50 was less than 0.6 µM.

In turn, `COc1cc(Nc2nc(C)c(-c3ccc(S(N)(=O)=O)cc3)s2)ncn1` displayed an IC50 of less than 0.6 µM.

The molecule `CNS(=O)(=O)c1ccc(-c2sc(Nc3cnccn3)nc2C)cc1` showed an IC50 of less than 0.6 µM.

`Cc1nc(Nc2cnccn2)sc1-c1ccc(Cl)c(S(N)(=O)=O)c1` had an IC50 of less than 0.6 µM.

Regarding `Cc1nc(Nc2cc[nH]n2)sc1-c1ccc(S(C)(=O)=O)c(F)c1`, the IC50 is less than 0.6 µM.

`COc1ccc(Nc2nc(C)c(-c3ccc(Cl)c(S(C)(=O)=O)c3)s2)cn1` came in with an IC50 of less than 0.6 µM.

In turn, `Cc1nc(Nc2ncccn2)sc1-c1ccc(S(N)(=O)=O)cc1` came in with an IC50 of less than 0.6 µM.

`Cc1nc(Nc2ccccn2)sc1-c1ccc(S(N)(=O)=O)cc1` gave a 50% inhibitory concentration (IC50) of less than 0.6 µM.

In turn, `CCc1nccn1-c1cc(-c2sc(Nc3cnccn3)nc2C)ccc1S(C)(=O)=O` had an IC50 of less than 0.6 µM.

In turn, `Cc1cnc(Nc2nc(C)c(-c3ccc(C(=O)O)cc3)s2)s1` yielded an IC50 of less than 0.6 µM.

In turn, `Cc1nc(Nc2cnccn2)sc1-c1ccc(Cl)c(S(=O)(=O)NCCO)c1` came in with an IC50 of less than 0.6 µM.

`CCN(CC)CCCNc1cncc(Nc2nc(C)c(-c3ccc(S(N)(=O)=O)cc3)s2)n1` registered an IC50 of less than 0.6 µM.

Take `Cc1nc(Nc2cc[nH]n2)sc1-c1cccc(S(=O)(=O)NCCO)c1`: the IC50 is less than 0.6 µM.

`Cc1cc(Nc2nc(C)c(-c3ccc(Cl)c(S(=O)(=O)NCCO)c3)s2)n(C)n1`: the IC50 was less than 0.6 µM.

For `Cc1nc(Nc2cnccn2)sc1-c1ccc(C(=O)O)cc1`, the IC50 is less than 0.6 µM.

`Cc1nc(Nc2cnccn2)sc1-c1cccc(S(=O)(=O)NCCO)c1` had a half-inhibitory concentration (IC50) of less than 0.6 µM.

As to `CNS(=O)(=O)c1ccc(-c2sc(Nc3cncc(OC)n3)nc2C)cc1`, the IC50 was less than 0.6 µM.

Molecule `Cc1nc(Nc2cc[nH]n2)sc1-c1ccc(Cl)c(S(=O)(=O)N(CCO)CCO)c1` registered an IC50 of less than 0.6 µM.

In the case of `Cc1nc(Nc2cncc(N3CCN(C)CC3)n2)sc1-c1ccc(S(C)(=O)=O)c(C(F)(F)F)c1`, the IC50 is less than 0.6 µM.

Regarding `Cc1nc(Nc2cccnc2)sc1-c1ccc(S(N)(=O)=O)c(Cl)c1`, the IC50 was less than 0.6 µM.

`Cc1nc(Nc2cnccn2)sc1-c1ccc(S(C)(=O)=O)c(-n2ccnc2C)c1` yielded an IC50 of less than 0.6 µM.

`CCCc1nccn1-c1cc(-c2sc(Nc3cc[nH]n3)nc2C)ccc1S(C)(=O)=O` returned an IC50 of less than 0.6 µM.

`Cc1nc(Nc2ccc(Cl)nn2)sc1-c1ccc(S(N)(=O)=O)cc1` showed an IC50 of less than 0.6 µM.

Consider `Cc1nc(Nc2nccs2)sc1-c1ccc(S(N)(=O)=O)cc1`, for which the IC50 was less than 0.6 µM.

As for `Cc1nc(Nc2cccnc2)sc1-c1ccc(S(N)(=O)=O)cc1`, the IC50 was less than 0.6 µM.

Take `Cc1nc(Nc2cnccn2)sc1-c1ccc(S(N)(=O)=O)cc1`: the IC50 is less than 0.6 µM.

With `Cc1nc(Nc2nnc(CCN3CCOCC3)s2)sc1-c1ccc(S(N)(=O)=O)cc1`, the IC50 is less than 0.6 µM.

In turn, `Cc1nc(Nc2nnc(N3CCN(C)CC3)s2)sc1-c1ccc(S(C)(=O)=O)c(C(F)(F)F)c1` showed an IC50 of less than 0.6 µM.

The molecule `Cc1nc(Nc2ccncc2)sc1-c1ccc(S(N)(=O)=O)cc1` returned an IC50 of less than 0.6 µM.

`Cc1nnc(Nc2nc(C)c(-c3ccc(S(N)(=O)=O)cc3)s2)s1` came in with an IC50 of less than 0.6 µM.

`Cc1nc(Nc2cc[nH]n2)sc1-c1ccc(S(C)(=O)=O)c(C(F)(F)F)c1` showed an IC50 of less than 0.6 µM.

Turning to `Cc1nc(Nc2ccc(N3CCN(C)CC3)nc2)sc1-c1ccc(S(C)(=O)=O)cc1`, the IC50 is less than 0.6 µM.

For the molecule `Cc1nc(Nc2cc[nH]n2)sc1-c1ccc(C(=O)O)cc1`, the IC50 was less than 0.6 µM.

`Cc1nc(Nc2nc[nH]n2)sc1-c1ccc(S(N)(=O)=O)cc1` came in with an IC50 of less than 0.6 µM.

Regarding `Cc1nc(Nc2ccc(Cl)cn2)sc1-c1ccc(S(N)(=O)=O)cc1`, the IC50 was less than 0.6 µM.

`Cc1nc(Nc2cc[nH]n2)sc1-c1ccc(S(C)(=O)=O)c(-n2ccnc2)c1` showed an IC50 of less than 0.6 µM.

`Cc1nc(Nc2cc[nH]n2)sc1-c1ccc(S(C)(=O)=O)c(OCCN2CCOCC2)c1`: the IC50 was less than 0.6 µM.

As to `CCN(CC)CCN(C)c1cc(-c2sc(Nc3cc[nH]n3)nc2C)ccc1S(C)(=O)=O`, the IC50 is less than 0.6 µM.

Take `CCOc1cccc(Nc2nc(C)c(-c3ccc(S(N)(=O)=O)cc3)s2)n1`: the IC50 was less than 0.6 µM.

The molecule `Cc1nc(Nc2nccs2)sc1-c1ccc(Cl)c(S(=O)(=O)NCCO)c1` gave an IC50 of less than 0.6 µM.

The molecule `Cc1nc(Nc2cncc(NCCCO)n2)sc1-c1ccc(S(N)(=O)=O)cc1` showed an IC50 of less than 0.6 µM.

In turn, `Cc1nc(Nc2cncc(NCCN3CCOCC3)n2)sc1-c1ccc(S(N)(=O)=O)cc1` showed an IC50 of less than 0.6 µM.

Regarding `Cc1nc(Nc2cnccn2)sc1-c1ccc([S+](C)[O-])cc1` (centres undefined), the IC50 is less than 0.6 µM.

The molecule `Cc1nc(Nc2nnc(CCC(=O)O)s2)sc1-c1ccc(S(N)(=O)=O)cc1` displayed an IC50 of less than 0.6 µM.
